Patent US4075332A (priority 1976, dated 1978)
Read-outs that look alike come from different tables or passages of the source.

Tests used:
[1] = system: Spider mites; test: whole plant or invertebrate; settings: Tetranychus urticae, 48 h, read-out: Mortality, % - Spider Mites Contact
[2] = system: Bean aphids; test: Aphid, Systemic; format: in vivo, bean aphid; settings: Aphis fabae, 48 h, read-out: Mortality, % - Bean Aphids Systemic
Protocol: (§1) In the insecticidal and miticidal tests, the experimental compounds were tested as aqueous emulsions. These emulsions were prepared by dissolving the compound in acetone and dispersing it in distilled water with Triton X-100, an alkylaryl polyether alcohol derived by the reaction of i-octylphenol with ethylene oxide, to give spray emulsions containing the desired concentrations of the compound. These emulsions were then used in standard laboratory tests described below.
Aphid, Systemic: Nasturtium plants infested with the bean aphid were treated by applying 20 ml. of the formulated test chemical to the soil. The degree of aphid control was rated after 2 days.

[3] = target: bovine cholinesterase (Bos taurus, UniProt P23795); test: biochemical; format: biochemical
bovine cholinesterase, sequence (P23795-2 with tags, fused parts or gaps limits assumed): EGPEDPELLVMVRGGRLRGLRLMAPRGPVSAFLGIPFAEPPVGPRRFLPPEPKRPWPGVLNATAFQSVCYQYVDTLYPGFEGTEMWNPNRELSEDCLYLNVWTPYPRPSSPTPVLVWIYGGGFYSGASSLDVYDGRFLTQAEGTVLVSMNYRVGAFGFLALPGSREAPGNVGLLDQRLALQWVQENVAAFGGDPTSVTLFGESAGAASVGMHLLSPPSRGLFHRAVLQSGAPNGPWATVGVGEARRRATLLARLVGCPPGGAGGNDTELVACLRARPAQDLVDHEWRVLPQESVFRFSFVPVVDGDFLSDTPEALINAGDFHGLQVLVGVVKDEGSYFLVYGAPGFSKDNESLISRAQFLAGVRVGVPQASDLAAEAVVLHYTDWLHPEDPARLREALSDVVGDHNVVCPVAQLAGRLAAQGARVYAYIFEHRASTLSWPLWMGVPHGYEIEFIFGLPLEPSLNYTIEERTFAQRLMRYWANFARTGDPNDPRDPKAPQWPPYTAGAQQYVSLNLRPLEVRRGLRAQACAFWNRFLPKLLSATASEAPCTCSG

[4] = system: House fly; test: whole plant or invertebrate; settings: Musca domestica, 48 h; for mortality at 20 ppm: read-out: House Fly Spray Mortality, % (at 20 ppm); for mortality at 250 ppm: read-out: Mortality, % - House Flies
[5] = in vivo; settings: rat, po
[6] = system: Southern army worm; settings: in vivo; for Southern Army Worm Mortality, %: southern armyworm
[7] = system: Corn rootworm larvae; test: whole plant or invertebrate; settings: soil, 120 h, read-out: Corn Rootworm Larvae Mortality, % (at 2.5 ppm)
[8] = system: Mexican bean beetle; test: whole plant or invertebrate; settings: Epilachna varivestis; for mortality at 50 ppm / mortality at 100 ppm: read-out: Mexican Bean Beetle Larvae Mortality, %
[9] = system: Spider mites; test: Mite, Systemic; format: in vivo, two-spotted mite; settings: Tetranychus urticae, read-out: Mortality, % - Spider Mites Systemic
Protocol: as §1
Mite, Systemic: Bean plants infested with the two-spotted mites were treated by applying 20 ml. of the formulated test chemical to the soil.

[10] = system: Root-knot nematode; settings: in vivo
[11] = system: Bean aphids; test: whole plant or invertebrate; settings: Aphis fabae, 48 h, read-out: Mortality, % - Bean Aphids Contact
[12] = system: Southern army worm; test: whole plant or invertebrate; settings: Spodoptera eridania; for mortality at 50 ppm / mortality at 100 ppm: read-out: Mortality of Southern Armyworm, %; for mortality at 250 ppm: read-out: Mortality, % - Southern ArmyWorm
[13] = Thermal stability of products (GC / nmr observation); format: physicochemical; settings: for thermal stability: general statement
Source text: The corresponding primary alkyl derivatives such as the S'-n-propyl compound are stable under similar conditions.
The ethyl sulfinylmethyl product was unstable at room temperature.

[14] = system: Corn rootworm larvae; settings: in vivo, 120 h
[15] = system: Sclerotium; test: Sclerotium soil fungicide test; format: in vivo; settings: Table III; 100 lb/acre
Protocol: Sterilized soil was inoculated with Solerotium and placed into a 4-ounce "Dixie cup", and drenched with 20 ml. of an emulsion of the test chemical. The cup was then incubated for 2 days at 70° F. Thereafter, the amount of mycelial growth on the soil surface was rated and the control by the chemical estimated accordingly.

[16] = system: powdery mildew fungus (Erysiphe Polygoni); test: Bean Powdery Mildew eradicant test; format: in vivo; settings: Table III; 200 ppm
[17] = system: bean rust fungus (Uromyces Phaseoli); test: Bean Rust eradicant test; format: in vivo; settings: Table III; 200 ppm
Protocol: In these tests, the experimental compounds were tested in aqueous emulsions, prepared in the same manner as was previously described above with respect to the insecticidal and miticidal tests.
Pinto bean plants with fully expanded primary leaves were inoculated with spores of the bean rust fungus (Uromyces Phaseoli) and incubated for 24 hours. The test were then carried out as described above for Bean Powdery Mildew.

[18] = system: bean rust fungus (Uromyces Phaseoli); test: Bean Rust systemic eradicant test; format: in vivo; settings: Table III; 200 ppm
Protocol: Pinto bean plants were inoculated 24 hours prior to use as above and the soil in the pot was then treated with 20 ml. of an emulsion of the test chemical. The rest of the test and the evaluation were then carried out an above for Bean Powdery Mildew.

[19] = system: Corn earworm; test: Field control of corn earworm (Example 27); format: in vivo; settings: Table XV; 1 lbs/acre; untreated check 45
Source text: Spring Gold sween corn was planted on March 21. Each treatment was made on a 48 ft. row and was replicated three times. Ratings represent the total counts from all three replicates. Except for insecticide treatment the plots were managed according to recommended farming practice for the area. Application of the experimental compositions at the 1 lb. active ingredient per acre were made and readings were made to determine the number of infested corn ears.

[20] = system: Lone Star Ticks; test: Animal systemic insecticide test in guinea pigs, lone star tick nymphs; format: in vivo, lone star tick (host: guinea pig); settings: Cavia porcellus, 24 h, Table XI, read-out: Lowest Dosage (mg/kg) Causing Complete Kill of Nymphs of Lone Star Ticks
Protocol: (§2) The experimental compounds, formulated as 5% solutions in Tween 20, were administered orally and subcutaneously to guonea pigs which have been artificially infested with nymphs of the lone star tick at 48 hours before treatment, larvae of the secondary screw worm and of the black blow fly at 24 hours before treatment. Mortality was observed 24 hours after the treatment. For the details of the techniques, reference is made to the publications of R. O. Drummond in the Journal of Economic Entomology, particularly in Vol. 60, pages 733-737 in 1967.

[21] = system: Bean aphids; settings: bean aphid, in vivo, 48 h
[22] = system: Secondary Screw Worms; test: Animal systemic insecticide test in guinea pigs, secondary screw worm larvae; format: in vivo, secondary screw worm (host: guinea pig); settings: Cavia porcellus, 24 h, Table XI, read-out: Lowest Dosage (mg/kg) Causing Complete Kill of Larvae of Secondary Screw Worms
Protocol: as §2

[23] = system: Black Blow Flies; test: Animal systemic insecticide test in guinea pigs, black blow fly larvae; format: in vivo, black blow fly (host: guinea pig); settings: Calliphoridae, in Cavia porcellus, 24 h, Table XI, read-out: Lowest Dosage (mg/kg) Causing Complete Kill of Larvae of Black Blow Flies
Protocol: as §2

[24] = system: Spider mites; settings: two-spotted spider mite, in vivo, 48 h
[25] = read-out: Mortality, % - Mexican Bean Beetles
[26] = read-out: Mortality, % - Mexican Bean Beetle

CCCSP(=O)(OCC)SCCSCC (stereo not shown) [Example 30, O-Ethyl 1-Propyl S'-2-Ethylthioethyl Dithiophosphate]
mortality at 250 ppm [1]: 100% | mortality at 250 ppm [2]: 90% | IC50 ([3]; read-out: Cholinesterase Inhibiting conc. LD50, Mole/Liter, 30 min): 1100 nM | mortality at 20 ppm [4]: 100% | mortality at 250 ppm [4]: 100% | LD50 at 336 h [5]: 318 mg/kg | Southern Army Worm Mortality, % [6]: 100% | mortality at 2.5 ppm [7]: 20% | mortality at 50 ppm [8]: 100% | mortality at 250 ppm [8, 25]: 100% | mortality at 250 ppm [9]: 100% | Nematodes Rate, Control after 1-4 weeks (at 25#/acre) [10]: 100 | mortality at 250 ppm [11]: 100% | mortality at 50 ppm [12]: 80% | mortality at 100 ppm [12]: 100% | mortality at 250 ppm [12]: 100%

CCCSP(=O)(OCC)SCSCC (stereo not shown) [Example 11, O-Ethyl S-1-Propyl S'-Ethylthiomethyl Dithiophosphate]
IC50 [3]: 2700 nM | mortality at 20 ppm [4]: 100% | Southern Army Worm Mortality, % [6]: 100% | mortality at 2.5 ppm [7]: 100% | mortality at 100 ppm [8]: 100% | stability (nmr) ([13]; 60° C): slowly decomposing | Nematodes Rate, Control after 1-4 weeks (at 25#/acre) [10]: 100

CCOP(=O)(SCC)SCC(C)SCC (stereo not shown) [Example 29, O,S-Diethyl S'-2-Ethylthiopropyl Dithiophosphate]
Pest Control, % - Corn Rootworm (0.25 ppm) [14]: 20% | Control of Sclerotium, % [15]: 0% | Control of Foliar Fungi, % - Bean Mildew Eradicant [16]: 0% | Pest Control, % - Nematode Control (25 lb/acre) [10]: 20% | Control of Foliar Fungi, % - Bean Rust Eradicant [17]: 0% | Control of Foliar Fungi, % - Bean Rust Systemic Eradicant [18]: 0%

CCCSP(=O)(OCC)SCC[S+](C)[O-] (stereo not shown) [drawing 56]
Number of Infested Corn Ears (150 Ears Sampled) [19]: 0

CCOP(=S)(OCC)SCCSCC [Disyston, reference compound]
IC50 [3]: 380000 nM | mortality at 20 ppm [4]: 100% | LD50 at 336 h [5]: 25 mg/kg | Southern Army Worm Mortality, % [6]: 0% | mortality at 2.5 ppm [7]: 0% | mortality at 50 ppm [8]: 30% | Nematodes Rate, Control after 1-4 weeks (at 25#/acre) [10]: 0

CCOP(=S)(OCC)SCSCC [Thimet, reference compound]
IC50 [3]: 31000 nM | mortality at 20 ppm [4]: 90% | Southern Army Worm Mortality, % [6]: 0% | mortality at 2.5 ppm [7]: 100% | mortality at 100 ppm [8]: 90% | Nematodes Rate, Control after 1-4 weeks (at 25#/acre) [10]: 0

CCCSP(=O)(OCC)SCCSC (stereo not shown) [Example 1, O-Ethyl S-1-Propyl S'-2-Methylthioethyl Dithiophosphate]
mortality at 250 ppm [1]: 100% | mortality at 250 ppm [2]: 95% | minimal effective dose ([20]; oral): 50 mg/kg | minimal effective dose ([20]; sc, subcutaneous): 50 mg/kg | Mortality, % - Bean Aphids Contact [21]: 100% | mortality at 250 ppm [4]: 100% | LD50 at 336 h [5]: 46 mg/kg | Mortality, % - Southern ArmyWorm [6]: 100% | minimal effective dose ([22]; oral): 50 mg/kg | minimal effective dose ([22]; sc, subcutaneous): 50 mg/kg | minimal effective dose ([23]; oral): 50 mg/kg | minimal effective dose ([23]; sc, subcutaneous): 50 mg/kg | mortality at 250 ppm [8, 26]: 100% | mortality at 250 ppm [8, 25]: 100% | Mortality, % - Spider Mites Contact [24]: 100% | mortality at 250 ppm [9]: 100% | Nematode Control,% at 25 lb/acre [10]: 90% | mortality at 250 ppm [11]: 100% | mortality at 250 ppm [12]: 100%

CCCSP(=O)(OCC)SCC[S+](C)[O-] (stereo not shown) [Example 6, O-Ethyl S-1-Propyl S'-2-Methylsulfinylethyl Dithiophosphate]
mortality at 250 ppm [1]: 100% | mortality at 250 ppm [2]: 100% | minimal effective dose ([20]; oral): 50 mg/kg | minimal effective dose ([20]; sc, subcutaneous): 50 mg/kg | LD50 at 336 h [5]: 46 mg/kg | minimal effective dose ([22]; oral): 100 mg/kg | minimal effective dose ([22]; sc, subcutaneous): 50 mg/kg | minimal effective dose ([23]; oral): 50 mg/kg | minimal effective dose ([23]; sc, subcutaneous): 50 mg/kg | mortality at 250 ppm [8, 26]: 100% | mortality at 250 ppm [9]: 100% | Nematode Control,% at 25 lb/acre [10]: 100% | mortality at 250 ppm [11]: 100% | mortality at 250 ppm [12]: 100%

CCCSP(=O)(OCC)SCCSc1ccccc1 (stereo not shown) [Example 4, O-Ethyl S-1-Propyl S-2-Phenylthioethyl Dithiophosphate]
mortality at 250 ppm [1]: 100% | mortality at 250 ppm [2]: 20% | minimal effective dose ([20]; oral): > 100 mg/kg | minimal effective dose ([20]; sc, subcutaneous): > 100 mg/kg | mortality at 250 ppm [4]: 95% | minimal effective dose ([22]; oral): > 100 mg/kg | minimal effective dose ([22]; sc, subcutaneous): > 100 mg/kg | minimal effective dose ([23]; oral): > 100 mg/kg | minimal effective dose ([23]; sc, subcutaneous): > 100 mg/kg | mortality at 250 ppm [8, 25]: 100% | mortality at 250 ppm [9]: 40% | mortality at 250 ppm [11]: 95% | mortality at 250 ppm [12]: 100%

CCCSP(=O)(OCC)SCC(C)SC (stereo not shown) [drawing 57]
Number of Infested Corn Ears (150 Ears Sampled) [19]: 4

CCCSP(=O)(OCC)SCSc1ccc(Cl)cc1 (stereo not shown) [Example 31, O-Ethyl S-1-Propyl S'-4-Chlorophenyllthiomethyl Dithiophosphate]
IC50 [3]: 4.1 nM | mortality at 20 ppm [4]: 100% | Southern Army Worm Mortality, % [6]: 100% | mortality at 2.5 ppm [7]: 0% | mortality at 100 ppm [8]: 100% | Nematodes Rate, Control after 1-4 weeks (at 25#/acre) [10]: 100

CCOP(=O)(SCSCC)SCC(C)C (stereo not shown) [Example 12, O-Ethyl S-Isobutyl S'Ethylthiomethyl Dithiophosphate]
thermal stability [13]: thermal instability

CCCSP(=O)(OCC)SCCSC (stereo not shown) [drawing 55]
Number of Infested Corn Ears (150 Ears Sampled) [19]: 2

CCOP(=O)(SCCSCC)SC(C)(C)C (stereo not shown) [Example 10, O-Ethyl S-t-Butyl S'-2-Ethylthioethyl Dithiophosphate]
thermal stability [13]: thermally highly unstable | thermal stability on gas chromatographic analysis ([13]; injector temperature of 200° C): decomposed to yield isobutylene | mortality at 50 ppm [12]: 0% | mortality at 100 ppm [12]: 0%

CCCSP(=O)(OCC)SC[S+]([O-])CC (stereo not shown) [ethyl sulfinylmethyl product]
stability (nmr) ([13]; room temperature): unstable
